Results published in patent publication US6156700A, “3-(1,2-Benzisothiazol- and isoxazol-5-yl)-2,4(1H,3H)-pyrimidinedione or thione and 3-(1,2-benzisothiazol- and isoxazol-5-yl)-4(3H)-pyrimidinone or thione herbicidal agents” (American Cyanmid Company, priority 1998, dated 2000).

Key:
Settings in all cases: 0.0630 kg/ha
[1] = tested on: Morningglory, Ivyleaf, Ipomoea hederacea; assay: Postemergence herbicidal evaluation, IPOHE; assay type: in vivo, (L.) Jacq.
Method: (§1) In the tests, seedling plants are grown in jiffy flats for about two weeks. The test compounds are dispersed in 50/50 acetone/water mixtures containing 0.5% TWEEN®20, a polyoxyethylene sorbitan monolaurate surfactant of Atlas Chemical Industries, in sufficient quantities to provide the equivalent of about 0.0157 kg to 0.500 kg per hectare of active compound when applied to the plants through a spray nozzle operating at 40 psi for a predetermined time. After spraying, the plants are placed on greenhouse benches and are cared for in accordance with conventional greenhouse procedures. From four to five weeks after treatment, the seedling plants are examined and rated according to the rating system set forth below. Where more than one test is involved for a given compound, the data are averaged.
(§2) Results of herbicide evaluation are expressed on a rating scale (0-9). The scale is based upon a visual observation of plant stand, vigor, malformation, size, chlorosis and overall plant appearance as compared with a control.

[2] = tested on: Velvetleaf, Abutilon theophrasti; assay: Postemergence herbicidal evaluation, ABUTH; assay type: in vivo, Medic.
Method: as §1, §2

[3] = tested on: Rice, Tebonnet, Oryza sativa; assay: Postemergence herbicidal evaluation, ORYSAT; assay type: in vivo, (L.) Tebonnet
Method: as §1, §2

[4] = tested on: Foxtail, Green, Setaria viridis; assay: Postemergence herbicidal evaluation, SETVI; assay type: in vivo, (L.) Beau
Method: as §1, §2

[5] = tested on: Galium, Galium aparine; assay: Postemergence herbicidal evaluation, GALAP; assay type: in vivo
Method: as §1, §2

[6] = tested on: Sicklepod, Cassia obtusifolia; assay: Postemergence herbicidal evaluation, CASOB; assay type: in vivo, L.
Method: as §1, §2

[7] = tested on: Ragweed, Common, Ambrosia artemisifolia; assay: Postemergence herbicidal evaluation, AMBEL; assay type: in vivo, L.
Method: as §1, §2

[8] = tested on: Soybean, Williams, Glycine max; assay: Postemergence herbicidal evaluation, GLXMAW; assay type: in vivo, (L.) Merr. cv Williams
Method: as §1, §2

[9] = tested on: Lambsquarters, Common, Chenopodium album; assay: Postemergence herbicidal evaluation, CHEAL; assay type: in vivo, L.
Method: as §1, §2

[10] = tested on: Wheat, Winter, cv Riband, Triticum aestivum; assay: Postemergence herbicidal evaluation, TRZAWR; assay type: in vivo
Method: as §1, §2

[11] = tested on: Corn, Field, Zea mays; assay: Postemergence herbicidal evaluation, ZEAMX; assay type: in vivo, L.
Method: as §1, §2

[12] = tested on: Barnyardgrass, Echinochloa crus-galli; assay: Postemergence herbicidal evaluation, ECHCG; assay type: in vivo, (L.) Beau
Method: as §1, §2

Compound | herbicide rating (0-9) [1] | herbicide rating (0-9) [2] | herbicide rating (0-9) [3] | herbicide rating (0-9) [4] | herbicide rating (0-9) [5] | herbicide rating (0-9) [6] | herbicide rating (0-9) [7] | herbicide rating (0-9) [8] | herbicide rating (0-9) [9] | herbicide rating (0-9) [10] | herbicide rating (0-9) [11] | herbicide rating (0-9) [12]
C=CCOc1ccc(C)cc1-c1nsc2ccc(-n3c(=O)cc(C(F)(F)F)n(C)c3=O)cc12 [Compound 65, 3-{3-[6-(Allyloxy)-m-tolyl)-1,2-benzisothiazol-5-yl}-1-methyl-6-(trifluoromethyl)-2,4(1H,3H)-pyrimidinedione] | 9.0 | 9.0 | 1.5 | 9.0 | 4.0 | 9.0 | 9.0 | 5.5 | 9.0 | 3.5 | 5.5 | 1.0
Cc1ccc(OCC(=O)OC(C)(C)C)c(-c2nsc3ccc(-n4c(=O)cc(C(F)(F)F)n(C)c4=O)cc23)c1 [Compound 68, tert-Butyl {{2-{5-[3,6-dihydro-3-methyl-2,6-dioxo-4-(trifluoromethyl)-1(2H)-pyrimidinyl]-1,2-benzisothiazol-3-yl}-p-tolyl}oxy}acetate] | 9.0 | 6.0 | 2.0 | 9.0 | 2.0 | 9.0 | 5.0 | 5.5 | 9.0 | 3.5 | 5.0 | 5.0
C=CCOC(=O)COc1ccc(C)cc1-c1nsc2ccc(-n3c(=O)cc(C(F)(F)F)n(C)c3=O)cc12 [Compound 69, Allyl {{2-{5-[3,6-dihydro-3-methyl-2,6-dioxo-4-(trifluoromethyl)-1(2H)-pyrimidinyl]-1,2-benzisothiazol-3-yl}-p-tolyl}oxy}acetate] | 9.0 | 9.0 | 8.0 | 9.0 | 9.0 | 9.0 | 9.0 | 9.0 | 9.0 | 8.0 | 8.5 | 9.0
Cc1ccc(OCC(=O)OCCN(C)C)c(-c2nsc3ccc(-n4c(=O)cc(C(F)(F)F)n(C)c4=O)cc23)c1 [Compound 70, 2-(Dimethylamino)ethyl {{2-[5-[3,6-dihydro-3-methyl-2,6-dioxo-4-(trifluoromethyl)-1(2H)-pyrimidinyl]-1,2-benzisothiazol-3-yl}-p-tolyl}oxy}acetate] | 9.0 | 9.0 | 3.0 | 9.0 | 5.0 | 9.0 | 9.0 | 8.0 | 9.0 | 5.0 | 6.0 | 9.0
Cc1ccc(OCC(=O)OCCCl)c(-c2nsc3ccc(-n4c(=O)cc(C(F)(F)F)n(C)c4=O)cc23)c1 [Compound 71, 2-Chloroethyl {{2-{5-[3,6-dihydro-3-methyl-2,6-dioxo-4-(trifluoromethyl)-1(2H)-pyrimidinyl]-1,2-benzisothiazol-3-yl}-p-tolyl}oxy}acetate] | 9.0 | 9.0 | 8.0 | 9.0 | 9.0 | 9.0 | 9.0 | 9.0 | 9.0 | 9.0 | 8.5 | 9.0
Cc1ccc(OCC(=O)OCc2ccccn2)c(-c2nsc3ccc(-n4c(=O)cc(C(F)(F)F)n(C)c4=O)cc23)c1 [Compound 72, 2-Pyridylmethyl {{2-{5-[3,6-dihydro-3-methyl-2,6-dioxo-4-(trifluoromethyl)-1(2H)-pyrimidinyl]-1,2-benzisothiazol-3-yl}-p-tolyl}oxy}acetate] | 9.0 | 9.0 | 7.5 | 9.0 | 9.0 | 7.0 | 9.0 | 9.0 | 9.0 | 7.5 | 8.0 | 9.0
Cc1ccc(OCC(=O)OCC#Cc2ccccc2)c(-c2nsc3ccc(-n4c(=O)cc(C(F)(F)F)n(C)c4=O)cc23)c1 [Compound 73] | 9.0 | 9.0 | 5.5 | 9.0 | 9.0 | 9.0 | 9.0 | 9.0 | 9.0 | 4.5 | 6.0 | 9.0
C#CC(C)OC(=O)COc1ccc(C)cc1-c1nsc2ccc(-n3c(=O)cc(C(F)(F)F)n(C)c3=O)cc12 (stereo not drawn) [Compound 74, 1-Methyl-2-propynyl {{2-{5-[3,6-dihydro-3-methyl-2,6-dioxo-4-(trifluoromethyl)-1(2H)-pyrimidinyl]-1,2-benzisothiazol-3-yl}-p-tolyl}oxy}acetate] | 9.0 | 9.0 | 7.0 | 9.0 | 9.0 | 9.0 | 9.0 | 9.0 | 9.0 | 7.5 | 8.5 | 9.0
CC#CCOC(=O)COc1ccc(C)cc1-c1nsc2ccc(-n3c(=O)cc(C(F)(F)F)n(C)c3=O)cc12 [Compound 75] | 9.0 | 9.0 | 6.5 | 9.0 | 7.0 | 7.0 | 9.0 | 9.0 | 9.0 | 9.0 | 7.5 | 9.0
CC#CC(C)OC(=O)COc1ccc(C)cc1-c1nsc2ccc(-n3c(=O)cc(C(F)(F)F)n(C)c3=O)cc12 (stereo not drawn) [Compound 76, 1-Methyl-2-butynyl {{2-{5-[3,6-dihydro-3-methyl-2,6-dioxo-4-(trifluoromethyl)-1(2H)-pyrimidinyl]-1,2-benzisothiazol-3-yl}-p-tolyl}oxy}acetate] | 9.0 | 9.0 | 6.0 | 9.0 | 9.0 | 9.0 | 9.0 | 9.0 | 9.0 | 9.0 | 8.0 | 9.0
